The term pIC50 denotes the negative decadic logarithm of the IC50, by convention in mol/L. Lower therefore signals a large IC50.

pIC50: −log10 of the molar value. Where “and” joins values, the source holds several entries; their conditions need not be identical. Equal entries are not always repeated. Ends that are not written are not given here. Some results are limits rather than exact numbers.

These results are taken from article PMC11345766, “Computational Design of Pore-Forming Peptides with Potent Antimicrobial and Anticancer Activities” (Journal of Medicinal Chemistry, 2024).

A short description of test [1]: Calcein dye leakage assay from LUVs. It counts as biochemical. To be noted: P:L 1:100; pH 7.4. Summed up:
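POPC:POPG (1:1) LUVs, extruded at 100 nm, loaded with 35 mM self-quenching calcein; free dye removed. Peptide 0.1 mM and LUVs 0.02 mM in PBS with 100 mM NaCl, P:L 1:100 to 1:10. Fluorescence at 495/520 nm, normalized to 100% leakage by 10% Triton X-100.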

Test [2] has as its system A. baumannii (ATCC 19606). As to the kind of experiment: Neutropenic murine deep thigh infection model. It counts as in vivo, mouse. To be noted: single intraperitoneal dose at 10 times the MIC; four days after treatment. The text has this:
Mice were euthanized 4 days postinfection (day 8).
Each experimental group comprised three mice.

The subject of test [3] is cytoplasmic membranes of ESKAPEE pathogens. As to the kind of experiment: Cytoplasmic membrane depolarization assay, DiSC3-(5). Type of test: cell-based. To be noted: both Gram-negative and Gram-positive bacteria; peptides at their MICs. The procedure:
First, we investigated the ability of the peptides to depolarize the cytoplasmic membranes of ESKAPEE pathogens. […] Bacteria were incubated with 3,3′-dipropylthiadicarbocyanine iodide [DiSC3-(5)] dye, and the dye fluorescence was measured after peptide treatment. DiSC3-(5) is sensitive to transmembrane potential changes. It accumulates in the cytoplasmic membrane with quenched fluorescence, and when the membrane potential becomes unbalanced, the dye molecules translocate to the outside environment, resulting in increased fluorescence.[56] The three potent AMPs (LP1, LP18, and LP28) and the H-variant (LP40) depolarized the cytoplasmic membrane of both Gram-negative and Gram-positive bacteria at their MICs.
The cytoplasmic membrane depolarization activity of the peptides was determined by measuring the fluorescence of membrane-potential-sensitive dye DiSC3-(5). A. baumannii ATCC 19606, E. coli ATCC 11775, K. pneumoniae ATCC 13883, P. aeruginosa PAO1, S. aureus ATCC 12600, and E. faecium ATCC 700221 were grown to mid log phase (OD600 = 0.5) at 37 °C and then centrifuged (10,000 rpm at 4 °C for 10 min). Cells were washed twice with a buffer containing 20 mM glucose and 5 mM HEPES (pH 7.2) and diluted 1:10 (OD600 = 0.05) in a buffer with 0.1 M KCl, […], and 5 mM HEPES (pH 7.2). Fluorescence was recorded at the excitation and emission wavelengths of 622 and 670 nm, respectively. Bacterial solution (100 μL) was incubated for 15 min with 20 nM of DiSC3-(5) until fluorescence reached a plateau. Changes in transmembrane potential were monitored by observing the difference in fluorescence emission intensity after adding peptides (100 μL at their MICs) for 45 min. Assay was performed in triplicate.

Another test relates to S. carnosus (CCM 4838T). The test can be described thus: microbe, parasite or virus in culture. It counts as cell-based, Staphylococcus carnosus. To be noted: CCM 4838, 24 h; read-out: Antimicrobial activity (MIC) S. carnosus (CCM 4838T). Summed up:
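Bacteria were grown on MHA for 24 h, subcultured in MHB for 6 h at 37 °C and diluted to 10^6 CFU/mL. Compounds were serially diluted from 50 to 0.1 μM, inoculated and incubated for 24 h at 37 °C. MIC was the lowest concentration with no visible turbidity.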

Test [4] has as its system MOLM-13, MEC-1 and SU-DHL-4 cancer cell lines. To be noted: 24 h. The procedure: Anticancer activity of peptides against acute myeloid leukemia MOLM-13, chronic lymphocytic leukemia MEC-1, and diffuse large B-cell lymphoma SU-DHL-4 cell lines was tested using a WST cell viability assay. Cells were cultured in 75 cm^2 culture flasks at 37 °C in 5% CO2 according to the DSMZ recommendations before the start of the experiment. Then, the cells were seeded into 96-well plates in quadruplicate at 2.5 × 10^4 cells/well for SU-DHL-4, and 5 × 10^4 cells/well for MEC-1 and MOLM-13. Cells were treated with either peptides or PBS alone (negative control) for 24–72 h at 37 °C in 5% CO2. After incubation, cell viability was measured by WST-1 (Roche) according to the manufacturer’s instructions using Tecan microplate reader Infinite M200 PRO Plex and expressed as percentage compared to control.

As for “KKKKLKKILKKLFQFINQLDNQLQDIKKKK-NH2 [LP18]”, in test [1], the “Calcein leakage (%) from LUVs at P:L 1:100 (mol/mol)” value was 93.7 ± 3.1%. For the same substance, the “Reduction of bacterial load” value in test [2] is listed as “did not significantly reduce the bacterial load”. Further, the “Depolarization of the cytoplasmic membrane” value (shortened to “Depolarization”) in test [3] is reported as “depolarized”. Besides, the MIC in the test on S. carnosus (CCM 4838T) turned out to be 0.2 µM.
For “KKKKLKKILKKLFQFINQLDNQLQDIKQNK-NH2 [LP1]”, the “Calcein leakage (%) from LUVs at P:L 1:100 (mol/mol)” value in test [1] was 87% and 87.1 ± 2.7%. Moreover, the “Reduction of bacterial load” value in test [2] was “two to three orders of magnitude”. Further, in test [3], the “Depolarization” value is given as “depolarized”. The pIC50 in test [4] is greater than 5.00. For the same substance, in the test on S. carnosus (CCM 4838T), the MIC was determined as 0.8 µM.
For the substance “H-HHHHLKKILKKLFQFINQLDNQLQDIHHHH-OH [LP40]”, the “Calcein leakage (%) from LUVs at P:L 1:100 (mol/mol)” value in test [1] is on record as 102.5 ± 1.2%. Also, the “Reduction of bacterial load” value in test [2] is given as “did not significantly reduce the bacterial load”. Also, in test [3], the “Depolarization” value is on record as “depolarized”. In test [4], the pIC50 was 4.70 to 6.00. The MIC in the test on S. carnosus (CCM 4838T) was greater than 50 µM.
